From paper PMC4425855, “Novel pantothenate derivatives for anti-malarial chemotherapy” (Malaria Journal, 2015)
Read-outs that look alike come from different tables or passages of the source. One block for each compound: values may come before it.

What was measured:
[1] = system: asexual NF54 strain P. falciparum; assay: Plasmodium falciparum asexual blood stages proliferation assay with SYBR Green read-out; assay type: cell-based; details: for IC50 / anti-malarial activity (in words): compound alone, 10% human serum; for IC50: NF54 asexual blood stages, 72 hours, relative to DHA control, read-out: Anti-malarial activity IC50; for anti-malarial activity (in words): highest concentration tested 100 μM; for change of anti-malarial potency upon vanin inhibition: combined with 5 μM of vanin inhibitor CXP14.1-060
Experimental: The asexual stages of the NF54 strain P. falciparum were cultured as previously described, utilizing a shaker system with automated media change twice a day, parasites were kept in continuous culture within adapted Erlenmeyer flasks. Erythrocytes were refreshed every two or three days to adjust haematocrit to 5% and parasitaemia to 0.5%. Human erythrocytes (blood type A) were obtained from healthy blood donors, with no history of malaria. Culture media consisted of RPMI 1640 with HEPES [5.94 g/l, hypoxanthine [0.05 g/l], 10% (v/v) pooled human serum (blood type A) obtained similarly to erythrocytes, and 0,2% (w/v) sodium bicarbonate. Temperature was set to 37°C and a low oxygen gas mixture was constantly flushed over the culture maintaining a stable atmosphere of 3% O2, 4% CO2, and 93% N2.
A non-synchronous asexual NF54 strain P. falciparum culture was adjusted to a parasitaemia of 0.5-1% and a haematocrit of 1-5%. The compound dilution curves were prepared in dimethylsulphoxide (DMSO) from 100 mM to 10 μM at half/log step dilutions. The established anti-malarial dihydroartemisinin (DHA) was used as a positive control and diluted in DMSO from 1 mM to 100 nM at half/log step dilutions. The DMSO dilutions were 500-fold diluted in growth medium to yield a final DMSO concentration of 0.2% (v/v), and final compound concentrations from 200 μM to 20 nM (2 μM to 200 pM for DHA). Higher concentrations for the experimental compounds would not have been possible to achieve due to limitations in final DMSO concentration (0.1% v/v). Fifty μl of each compound dilution was combined with 50 μl of parasite culture in a black, clear-bottomed or entirely black 96-well plate. The outermost wells were filled with sterile water to prevent evaporation. DHA at a concentration of 1 μM and 0.1% DMSO (negative control) were used to determine the assay window. The 96-well plates were incubated for 72 hours in a candle jar at 37°C. Read-out was done using the DNA-marker SYBR Green as described previously. All assays were conducted at least in triplicate.
When combining two compounds in the same well the conditions were otherwise similar to the single compound assays, however the final DMSO concentration was 0.2%, which was also adjusted for the positive and negative controls and was not found to cause differences in results obtained with single compounds in assay containing 0.1% DMSO. The pantothenamide phenethyl-Pan was combined with a 10^−7 to 10^−5 M concentration curve of CXP14.1-060; the other pantothenamides were combined only with a 5 μM concentration of the same vanin inhibitor. The pantothenone vanin inhibitor RR8 was additionally combined with 20 μM, 6.3 μM, 2.0 μM, and 0.6 μM of pantothenate to explore potential competition for the same molecular target in P. falciparum. All assays were conducted at least in triplicate.
Statistical analyses were performed using GraphPad Prism 5. This includes producing inhibition curves, normalizing them to percentage of inhibition, calculation of IC50 values, correlation coefficients (Spearman non-parametric correlation), and Schild analyses. The IC50 is the concentration of the compound in question at which the compound reaches 50% inhibition relative to the DHA control curve, and is calculated using the interpolate function in GraphPad Prism 5.

[2] = molecular target: T1, vanin enzymatic activity in human serum (Homo sapiens, UniProt O95497); assay: Vanin/pantetheinase activity assay with AMC substrate and fluorescence readout; assay type: biochemical
T1 sequence (O95497 22-491): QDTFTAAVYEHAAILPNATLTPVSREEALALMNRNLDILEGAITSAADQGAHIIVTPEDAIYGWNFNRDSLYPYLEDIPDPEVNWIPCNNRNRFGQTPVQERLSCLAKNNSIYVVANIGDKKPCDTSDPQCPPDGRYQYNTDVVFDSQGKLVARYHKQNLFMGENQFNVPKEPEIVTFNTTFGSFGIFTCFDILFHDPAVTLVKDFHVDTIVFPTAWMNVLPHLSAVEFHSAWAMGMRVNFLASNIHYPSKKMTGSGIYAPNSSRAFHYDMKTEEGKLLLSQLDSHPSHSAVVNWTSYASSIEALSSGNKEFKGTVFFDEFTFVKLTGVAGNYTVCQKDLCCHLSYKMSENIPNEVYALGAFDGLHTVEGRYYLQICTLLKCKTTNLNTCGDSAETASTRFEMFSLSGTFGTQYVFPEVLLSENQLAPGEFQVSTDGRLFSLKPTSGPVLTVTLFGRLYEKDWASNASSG

P. falciparum = system: P. falciparum; parameters: method as in PMID 23405100; details: 'aged' medium; cited from earlier work
[3] = Plasmodium falciparum, NF54, 72 h

Compound: CC(C)(CO)[C@@H](O)C(=O)NCCS(=O)(=O)Nc1ccccc1 [SN 14,621]
IC50 [1, 3]: 33.6 µM
anti-malarial activity (in words) [1]: moderate activity

Compound: CC(C)(CO)[C@@H](O)C(=O)NCCS(=O)(=O)Nc1ccc(Cl)cc1 [SN 14,622]
IC50 [1, 3]: 7.4 µM
anti-malarial activity (in words) [1]: moderate activity

Compound: CC(C)(CO)[C@@H](O)C(=O)NCCC(O)Cc1ccccc1 (stereo partly shown) [CXP14.1-034]
IC50 [1, 3]: 24.1 µM

Compound: C=CCCC(=O)CCNC(=O)[C@H](O)C(C)(C)CO [RR2]
IC50 [1, 3]: 2.6 µM

potency against human vanins (in words) [2]: nanomolar potency
Compound: CC(C)(C)c1ccc(CC(=O)CCNC(=O)[C@H](O)C(C)(C)CO)cc1 [CXP14.1-060]
IC50 [1, 3]: > 100 µM
anti-malarial activity (in words) [1]: no anti-malarial activity

Compound: CC(C)(CO)[C@@H](O)C(=O)NCCC(=O)NCCc1ccccc1 [Phenethyl-Pan]
IC50 [1, 3]: ≥ 50 µM
IC50 [1]: 98.2 µM
efficacy of parasite growth inhibition ([1]; in the presence of 10 μM of vanin inhibitor CXP14.1-060, comparable to DHA): full inhibition of parasite growth
IC50 (P. falciparum): 0.02 µM

Compound: CC(C)(CO)[C@@H](O)C(=O)N/C=C/C(=O)O [CJ-15,801]
IC50 [1, 3]: > 100 µM
anti-malarial activity (in words) [1]: poor inhibitor of P. falciparum growth

Compound: CCCCCNC(=O)CCNC(=O)[C@H](O)C(C)(C)CO [N5-Pan]
IC50 [1, 3]: ≥ 50 µM
change of anti-malarial potency upon vanin inhibition [1]: increased
IC50 [1]: 45.1 µM

Compound: CC(C)(CO)[C@@H](O)C(=O)NCCC(=O)CCc1ccccc1 [RR7]
IC50 [1, 3]: 7.7 µM

Compound: CC(C)(CO)[C@@H](O)C(=O)NCCC(=O)c1ccccc1 [SN 12,601]
IC50 [1, 3]: 6.1 µM
anti-malarial activity (in words) [1]: moderate activity

Compound: CC(C)(CO)[C@@H](O)C(=O)NCCCO [Pantothenol]
IC50 [1, 3]: > 100 µM
anti-malarial activity (in words) [1]: no anti-malarial activity

Compound: C[C@H]1[C@@H](O)O[C@@H]2O[C@@]3(C)CC[C@H]4[C@H](C)CC[C@@H]1[C@@]24OO3 [DHA, dihydroartemisinin]
change of anti-malarial potency upon vanin inhibition [1]: did not change
Anti-malarial IC50 (in words) ([1]; reference compound): low nanomolar range

Compound: CCCCCCCCCNC(=O)CCNC(=O)[C@H](O)C(C)(C)CO [N9-Pan]
IC50 [1, 3]: ~15 µM
change of anti-malarial potency upon vanin inhibition [1]: not increased
IC50 [1]: 14.6 µM

Compound: CCCCCCCNC(=O)CCNC(=O)[C@H](O)C(C)(C)CO [N7-Pan]
IC50 [1, 3]: ≥ 50 µM
change of anti-malarial potency upon vanin inhibition [1]: increased
IC50 [1]: 79 µM

Compound: CC(C)(CO)[C@@H](O)C(=O)NCCC(=O)CCCc1ccccc1 [RR8]
IC50 [1, 3]: 2.2 µM
slope of the line in the Schild Plot ([1]; RR8 dilution curve combined with 20 μM, 6.3 μM, 2.0 μM and 0.6 μM of pantothenate): 1.087 ± 0.089
shift of IC50 on addition of pantothenate ([1]; addition of increasing concentrations of pantothenate): increase in the IC50
